According to ChEMBL document CHEMBL4002647, “BMS-933043, a Selective α7 nAChR Partial Agonist for the Treatment of Cognitive Deficits Associated with Schizophrenia” (ACS Med Chem Lett, 2017):

Legend:
[1] = molecular target: Neuronal acetylcholine receptor subunit alpha-7 (Rattus norvegicus, UniProt Q05941); assay: Agonist activity at rat alpha7 nAChR expressed in HEK293 cells assessed as increase in Ca2+ flux by Fluo-4 AM dye based FLIPR assay; format: cell-based
[2] = Drug level treated with (2R)-N-(6-(1H-Imidazol-1-yl)-4-pyrimidinyl)-4'H-spiro[4-azabicyclo[2.2.2]octane-2,5'-[1,3]oxazol]-2'-amine

Chain of Neuronal acetylcholine receptor subunit alpha-7 (Q05941 whole entry): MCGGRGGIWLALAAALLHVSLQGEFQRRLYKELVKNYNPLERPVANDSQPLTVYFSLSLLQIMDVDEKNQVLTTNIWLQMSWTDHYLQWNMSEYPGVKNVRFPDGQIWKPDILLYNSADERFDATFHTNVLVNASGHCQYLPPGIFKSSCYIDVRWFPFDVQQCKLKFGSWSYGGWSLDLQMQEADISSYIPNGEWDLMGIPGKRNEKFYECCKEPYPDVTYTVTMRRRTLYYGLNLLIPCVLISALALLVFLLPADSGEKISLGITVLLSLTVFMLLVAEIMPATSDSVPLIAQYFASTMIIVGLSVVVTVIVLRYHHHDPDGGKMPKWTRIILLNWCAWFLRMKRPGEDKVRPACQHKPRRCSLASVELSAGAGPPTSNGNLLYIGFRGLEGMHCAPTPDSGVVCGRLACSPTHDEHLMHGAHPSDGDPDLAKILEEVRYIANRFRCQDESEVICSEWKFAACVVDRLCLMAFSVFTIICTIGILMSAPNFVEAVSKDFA

## [O-][N+]12CCC(CC1)C1(CN=C(Nc3cc(-n4ccnc4)ncn3)O1)C2 (single isomer, unassigned)
[1]
  EC50: > 50 µM
[2]
  Drug metabolism: Metabolite detected
